Data on 2 compounds can be found in patent US20230210803A1, “TRANS-CROCETIN COMPOSITIONS AND TREATMENT REGIMENS” (L.E.A.F. HOLDINGS GROUP LLC, priority 2020, published 2023).

Structures are written as SMILES.

By half-life is commonly meant the time needed for the level to fall by half in the phase considered. Higher therefore signals slow loss. In general, AUC refers to concentration integrated over time.

A short description of data set [1]: PK of L4L-121 versus free TC in healthy mice. The conditions noted are these: mouse, in vivo, one intravenous injection 2.5 mg/kg (normalized to TC). An excerpt: […]. […] […]. […] […]
The test system of the next data set is HUVECs. Description: Reoxygenation of HUVECs under hypoxic conditions (BioTracker 520 Green Hypoxia Dye, flow cytometry). Particulars: continuous hypoxic conditions (1% PO2). For orientation: Flow cytometry measures light scatter and fluorescence of single cells or particles in a stream.
Data set [2] is described as follows: Liposomal CTC and MTC PK in mice. More on the design: species or system Balb/c mice. The conditions noted are these: mouse, in vivo.
Experimental: 5 μL of each plasma sample was mixed with 395 μL methanol containing 1% formic acid. Sample mixtures were well mixed by vortexing. […] Samples were vortexed and then centrifuged at 10000 RPM for 10 min at room temperature. 200 μL of supernatant was removed from each sample without disturbing pellet and analyzed by HPLC. If the amount of plasma permitted, this analysis was duplicated.
The concentration of STC in the plasma samples was quantified by standard curve constructed by analyzing plasma samples containing known amount of STC. PK profiles were analyzed.
For data set [3] the following is noted: mouse, in vivo, iv, 50 mg/kg.

Experimental for HUVECs: For quantification of the hypoxia levels, cells were then incubated for 1 h with 1.5 μM BioTracker 520 Green Hypoxia Dye (Sigma-Aldrich) before being washed and stored in the hypoxia chamber for 1 h. […] Hypoxia levels were quantified with a BD Accuri™ C6 cell analyzer with a direct read-out of the BioTracker probe. The results were analyzed with FlowJo software version 10 (TreeStar).

In turn, `CC(/C=C/C=C(\C)C(=O)O)=C\C=C\C=C(C)\C=C\C=C(/C)C(=O)O` [free TC, trans-crocetin free acid] had a half-life in data set [1] of 37.1 min. Moreover, the AUC in data set [1] (read-out: exposure (AUC)) was found to be 2700 ng·h/mL. Besides, the “reoxygenation effect (PO2)” value with HUVECs (5 μg/mL TC, 30 min post-treatment) was “up to 15 % PO2”. Further, in the data set on HUVECs (3 h after treatment), the “PO2 after loss of efficacy” value was 5 % PO2.
For the compound `CC(/C=C/C=C(\C)C(=O)[O-])=C\C=C\C=C(C)\C=C\C=C(/C)C(=O)[O-].[Na+].[Na+]` [STC free drug, sodium trans-crocetinate], the “half-life (t1/2)” value in data set [2] is listed as “half an hour”. In data set [3], the T½ entry is reported as “less than 0.5 h”.
